# ChEMBL document CHEMBL3769315 (J Med Chem, 2016)
# System: Hepatitis C virus
# Assay: microbe, parasite or virus in culture
# Type: functional, organism-based, Hepacivirus hominis
# Settings: JFH-1, Huh-7.5.1, 48 h
row,Compound,EC50 [µM]
1,CN1CCCN(C(c2ccccc2)c2ccc(Cl)cc2)CC1 (racemic) [HOMOCHLORCYCLIZINE],0.057
2,CN1CCC(N(c2ccccc2)c2ccccc2)CC1,2.72
3,Clc1ccc([C@H](c2ccccc2)N2CCN(C3CCCCC3)CC2)cc1,0.177
4,CC(C)CN1CCN([C@@H](c2ccccc2)c2ccc(Cl)cc2)CC1,0.102
5,CCCN1CCN([C@H](c2ccccc2)c2ccc(Cl)cc2)CC1,0.024
6,CN1CCC(N(c2ccccc2)c2ccc(OC(C)(C)C)cc2)CC1,0.354
7,CCN1CCN(C2c3ccccc3-c3ccc(Br)cc32)CC1 (configuration not stated),1.68
8,FC(F)(F)CN1CCN([C@H](c2ccccc2)c2ccc(Cl)cc2)CC1,> 31.6
9,CCCN1CCN([C@@H](c2ccccc2)c2ccc(Cl)cc2)CC1,0.032
10,[2H]C([2H])([2H])N1CCN([C@H](c2ccccc2)c2ccc(Cl)cc2)CC1,0.04
11,OCCOCCN1CCN(C(c2ccccc2)c2ccc(Cl)cc2)CC1 (racemic) [HYDROXYZINE],0.032
12,CC(=O)N1CCN([C@@H](c2ccccc2)c2ccc(Cl)cc2)CC1,22
13,Clc1ccc([C@H](c2ccccc2)N2CCN(C3CCCC3)CC2)cc1,0.019
14,CC(C)CN1CCN([C@H](c2ccccc2)c2ccc(Cl)cc2)CC1,0.232
15,Clc1ccc(C(c2ccccc2)N2CCNCC2)cc1 (racemic) [NORCHLORCYCLIZINE],0.035
16,O=C1c2ccccc2C(=O)N1CCOCCN1CCN(C(c2ccccc2)c2ccc(Cl)cc2)CC1 (racemic),1.54
17,COc1ccc(CN2CCN([C@@H](c3ccccc3)c3ccc(Cl)cc3)CC2)c(OC)c1,0.456
18,CCCCN1CCN([C@H](c2ccccc2)c2ccc(Cl)cc2)CC1,0.195
19,O=C(O)COCCN1CCN(C(c2ccccc2)c2ccc(Cl)cc2)CC1 (racemic) [CETIRIZINE],> 31.6

# System: not listed separately
# Assay: Cytotoxicity against human Huh7.5.1 cells assessed as ATP level by luminescence analysis
# Settings: huh-7
row,Compound,CC50 [µM]
1,CN1CCCN(C(c2ccccc2)c2ccc(Cl)cc2)CC1 (racemic) [HOMOCHLORCYCLIZINE],12.8
2,CN1CCC(N(c2ccccc2)c2ccccc2)CC1,56.8
3,Clc1ccc([C@H](c2ccccc2)N2CCN(C3CCCCC3)CC2)cc1,12.3
4,CC(C)CN1CCN([C@@H](c2ccccc2)c2ccc(Cl)cc2)CC1,51.7
5,CCCN1CCN([C@H](c2ccccc2)c2ccc(Cl)cc2)CC1,48.5
6,CN1CCC(N(c2ccccc2)c2ccc(OC(C)(C)C)cc2)CC1,78.7
7,CCN1CCN(C2c3ccccc3-c3ccc(Br)cc32)CC1 (configuration not stated),53.1
8,CCCN1CCN([C@@H](c2ccccc2)c2ccc(Cl)cc2)CC1,39.7
9,[2H]C([2H])([2H])N1CCN([C@H](c2ccccc2)c2ccc(Cl)cc2)CC1,46.7
10,OCCOCCN1CCN(C(c2ccccc2)c2ccc(Cl)cc2)CC1 (racemic) [HYDROXYZINE],42.6
11,CC(=O)N1CCN([C@@H](c2ccccc2)c2ccc(Cl)cc2)CC1,91.3
12,Clc1ccc([C@H](c2ccccc2)N2CCN(C3CCCC3)CC2)cc1,30.4
13,CC(C)CN1CCN([C@H](c2ccccc2)c2ccc(Cl)cc2)CC1,58.2
14,Clc1ccc(C(c2ccccc2)N2CCNCC2)cc1 (racemic) [NORCHLORCYCLIZINE],10.4
15,O=C1c2ccccc2C(=O)N1CCOCCN1CCN(C(c2ccccc2)c2ccc(Cl)cc2)CC1 (racemic),> 100
16,COc1ccc(CN2CCN([C@@H](c3ccccc3)c3ccc(Cl)cc3)CC2)c(OC)c1,38.4
17,CCCCN1CCN([C@H](c2ccccc2)c2ccc(Cl)cc2)CC1,40.8

# System: not listed separately
# Assay: Selectivity index, ratio of CC50 for human Huh7.5.1 cells infected with HCV JFH-1 virus to EC50 for HCV JFH-1 virus
# Settings: not given
row,Compound,selectivity ratio
1,CN1CCCN(C(c2ccccc2)c2ccc(Cl)cc2)CC1 (racemic) [HOMOCHLORCYCLIZINE],225
2,CN1CCC(N(c2ccccc2)c2ccccc2)CC1,21
3,Clc1ccc([C@H](c2ccccc2)N2CCN(C3CCCCC3)CC2)cc1,69
4,CC(C)CN1CCN([C@@H](c2ccccc2)c2ccc(Cl)cc2)CC1,507
5,CCCN1CCN([C@H](c2ccccc2)c2ccc(Cl)cc2)CC1,2020
6,CN1CCC(N(c2ccccc2)c2ccc(OC(C)(C)C)cc2)CC1,222
7,CCN1CCN(C2c3ccccc3-c3ccc(Br)cc32)CC1 (configuration not stated),32
8,CCCN1CCN([C@@H](c2ccccc2)c2ccc(Cl)cc2)CC1,1240
9,OCCOCCN1CCN(C(c2ccccc2)c2ccc(Cl)cc2)CC1 (racemic) [HYDROXYZINE],1330
10,CC(=O)N1CCN([C@@H](c2ccccc2)c2ccc(Cl)cc2)CC1,4
11,Clc1ccc([C@H](c2ccccc2)N2CCN(C3CCCC3)CC2)cc1,1600
12,CC(C)CN1CCN([C@H](c2ccccc2)c2ccc(Cl)cc2)CC1,251
13,Clc1ccc(C(c2ccccc2)N2CCNCC2)cc1 (racemic) [NORCHLORCYCLIZINE],297
14,O=C1c2ccccc2C(=O)N1CCOCCN1CCN(C(c2ccccc2)c2ccc(Cl)cc2)CC1 (racemic),> 65
15,COc1ccc(CN2CCN([C@@H](c3ccccc3)c3ccc(Cl)cc3)CC2)c(OC)c1,84
16,CCCCN1CCN([C@H](c2ccccc2)c2ccc(Cl)cc2)CC1,209
